# Source: US20230075138A1 (priority 2021, published 2023)
# Columns and labels:
# COVID-19 [1] = test: Kaplan-Meier survival of COVID-19 positive patients hospitalized at the Mayo Clinic, by drug cohort; format: in vivo, human
# COVID-19 [2] = test: IL-6 level / ICU duration quadrants of COVID-19 ICU patients after therapeutic administration; format: in vivo, human; details: for patient count in quadrant Q2 / proportion of patients in quadrant Q2: Q2: ICU ≥15 days or deceased and IL-6 <10 pg/mL; for patients in Q3: Q3: ICU <15 d and IL-6 ≥10 pg/mL; for Proportion of Group − Proportion of Other: cohort vs patients not taking the drug class
# Experimental: Four categories of patient IL-6 level/ICU stay length were defined (i.e. the 4 quadrants described in Table 2). For each drug class with at least 10 patients, and for each quadrant with nonzero number of patients, the proportion of patients in the quadrant out of those taking a drug from the class were compared to the proportion of patients in the quadrant out of those not taking a drug from the class. Fisher exact test was performed to compute p-values on these proportion comparisons. A Benjamini-Hochberg adjustment was also applied to these p-values for multiple hypotheses.
# Because only 10 patients met the aforementioned criteria, 10 additional COVID positive, ICU patients who only had IL-6 measured post-corticosteroid administration were also examined. Their IL-6 levels were plotted against the duration of ICU stay (see FIG. 3). Similarly, patients who received tocilizumab (n=5), azithromycin (n=49), hydroxychloroquine (n=10), and antivirals (lopinavir-ritonavir and ribavirin, n=4) were also examined. Patients were grouped into the following four categories based on IL-6 level, ICU status, and mortality: • (Q1) ICU<15 d and IL-6<10 pg/mL, • (Q2) ICU≥15 d or deceased and IL-6<10 pg/mL, • (Q3) ICU<15 d and IL-6≥10 pg/mL, and • (Q4) ICU≥15 d or deceased and IL-6≥10 pg/mL. […] As a corollary, corticosteroids have fewer patients (30%, n=20) in Q3 compared to tocilizumab (80%, n=5), azithromycin (61%, n=49), and hydroxychloroquine (60%, n=10). (See Table 2)
# [3] = COVID-19 patients requiring ICU admission
# [4] = all hospitalized COVID-19 patients
# [5] = Q1: ICU <15 days and IL-6 <10 pg/mL
# [6] = Q3: ICU <15 days and IL-6 ≥10 pg/mL
# [7] = Q4: ICU ≥15 days or deceased and IL-6 ≥10 pg/mL
Molecule,survival rate at 60 days post-diagnosis (COVID-19 [1]; [3]) [%],survival rate at 60 days post-diagnosis (COVID-19 [1]; [4]) [%],patient count in quadrant Q1 (COVID-19 [2]; [5]),patient count in quadrant Q2 (COVID-19 [2]),proportion of patients in quadrant Q2 (COVID-19 [2]),patients in Q3 (COVID-19 [2]) [%],patient count in quadrant Q3 (COVID-19 [2]; [6]),patient count in quadrant Q4 (COVID-19 [2]; [7]),also measured
CC[C@H]1OC(=O)[C@H](C)[C@@H](O[C@H]2C[C@@](C)(OC)[C@@H](O)[C@H](C)O2)[C@H](C)[C@@H](O[C@@H]2O[C@H](C)C[C@H](N(C)C)[C@H]2O)[C@](C)(O)C[C@@H](C)CN(C)[C@H](C)[C@@H](O)[C@]1(C)O [azithromycin],92,93,4,0,(0),61,30,15,Proportion of Group − Proportion of Other (COVID-19 [2]; quadrant Q1): −0.10; Proportion of Group − Proportion of Other (COVID-19 [2]; quadrant Q3): 0.17; Proportion of Group − Proportion of Other (COVID-19 [2]; quadrant Q4): −0.07
C[C@@H]1C[C@H]2[C@@H]3CCC4=CC(=O)C=C[C@]4(C)[C@@]3(F)[C@@H](O)C[C@]2(C)[C@@]1(O)C(=O)CO [dexamethasone],72,90,–,–,–,–,–,–,–
C[C@]12CCC(=O)C=C1CC[C@@H]1[C@@H]2[C@@H](O)C[C@@]2(C)[C@H]1CC[C@]2(O)C(=O)CO [hydrocortisone],–,79,–,–,–,–,–,–,–
CCN(CCO)CCCC(C)Nc1ccnc2cc(Cl)ccc12 (stereo not drawn) [hydroxychloroquine],100,–,2,0,(0),60,6,2,Proportion of Group − Proportion of Other (COVID-19 [2]; quadrant Q1): 0.08; Proportion of Group − Proportion of Other (COVID-19 [2]; quadrant Q3): 0.05; Proportion of Group − Proportion of Other (COVID-19 [2]; quadrant Q4): −0.13
C[C@H]1C[C@@H]2[C@H]([C@@H](O)C[C@@]3(C)[C@H]2CC[C@]3(O)C(=O)CO)[C@@]2(C)C=CC(=O)C=C12 [methylprednisolone],–,–,–,–,–,–,–,–,"survival rate at 60 days post-diagnosis (COVID-19 [1]; human, in vivo): 77%"
C[C@]12C=CC(=O)C=C1CC[C@@H]1[C@@H]2C(=O)C[C@@]2(C)[C@H]1CC[C@]2(O)C(=O)CO [prednisone],–,92,–,–,–,–,–,–,–
tocilizumab,–,–,0,0,(0),80,4,1,survival 60 days post diagnosis (in words) (COVID-19 [1]; hospitalized COVID-19 patients): all 11 hospitalized patients receiving tocilizumab survived; proportion of patients in quadrant Q1 (COVID-19 [2]; [5]): (0); proportion of patients in quadrant Q3 (COVID-19 [2]; [6]): (0.8); proportion of patients in quadrant Q4 (COVID-19 [2]; [7]): (0.2)
